We go through seven compounds from DBAASP.

In brackets after ≈: the same amount, converted by molar mass.

Some test systems named below: Escherichia coli UB1005; Escherichia coli K99; Escherichia coli K88; Escherichia coli 078; Escherichia coli JJ2487; Escherichia coli O157:H7; Escherichia coli JW0013; Escherichia coli J2210; Escherichia coli MC1061.
Experiment in all cases: ≥ marks a high value that may be exact or a test limit, other limits are often not marked, values filed in µg/mL are converted to µM
For assay [1], the system named is Cryptococcus neoformans ATCC 32045.
In assay [2] the test system is Staphylococcus aureus ATCC 33591.
Assay [3] has as its system Pseudomonas aeruginosa ATCC 10145.
In assay [4] the test system is Candida albicans ATCC 10231.
Assay [5] has as its system Escherichia coli ATCC 2592.
The subject of assay [6] is Pseudomonas aeruginosa ATCC 27853.
Assay [7] has as its system Candida parapsilosis CGMCC 2.3989.
Assay [8] concerns Staphylococcus aureus ATCC 29213.
Assay [9] concerns Staphylococcus aureus ATCC 25923.
Assay [10] relates to Staphylococcus epidermidis ATCC 12228.
Assay [11] deals with Salmonella enterica subsp. enterica serovar Typhimurium ATCC 14028.
Assay [12] relates to Escherichia coli ATCC 25922.
Assay [13] concerns Candida tropicalis CGMCC 2.1975.
In assay [14] the test system is Staphylococcus aureus ATCC 43300.
Assay [15] concerns Salmonella enterica subsp. enterica serovar Typhimurium C77-31.
Assay [16] relates to Candida albicans CGMCC 2.2086.
Assay [17] relates to Micrococcus luteus ATCC 49732.
The test system of assay [18] is Salmonella typhimurium DA6192.
For assay [19], the system named is Bacillus subtilis ATCC 6633.
The subject of assay [20] is Klebsiella pneumoniae NCTC 5055.
For assay [21], the system named is Staphylococcus aureus ATCC 6538.
The test system of assay [22] is Escherichia coli ATCC 15597.
Assay [23] deals with Salmonella typhimurium SL1344.
Assay [24] has as its system Salmonella enterica subsp. enterica serovar Enteritidis MH91989.

Regarding `CC(C)C[C@H](NC(=O)[C@H](CCCN=C(N)N)NC(=O)[C@H](CC(C)C)NC(=O)[C@H](CCCN=C(N)N)NC(=O)[C@H](CC(C)C)NC(=O)[C@H](CCCN=C(N)N)NC(=O)[C@H](CC(C)C)NC(=O)[C@H](CCCN=C(N)N)NC(=O)[C@H](CC(C)C)NC(=O)[C@H](CCCN=C(N)N)NC(=O)[C@H](CC(C)C)NC(=O)[C@H](CCCN=C(N)N)NC(=O)[C@@H](N)CC(C)C)C(=O)N[C@@H](CCCN=C(N)N)C(=O)O` [LRLRLRLRLRLRLR], the minimal inhibitory concentration (MIC) – broadly, the smallest concentration in the dilution series that meets the test's criterion for growth inhibition – is 2.97 µM (≈ 5.66 µg/mL) in assay [1]; no less than 186 µM in assay [2]; no less than 65.7 µM in assay [3]; 186 µM (≈ 354 µg/mL) in assay [4]; 23 µM (≈ 43.8 µg/mL) in [5].
Turning to `NCCCC[C@H](NC(=O)[C@H](Cc1ccccc1)NC(=O)[C@H](CCCCN)NC(=O)[C@H](CCCCN)NC(=O)[C@H](Cc1ccccc1)NC(=O)[C@H](CCCCN)NC(=O)[C@H](CCCCN)NC(=O)[C@H](Cc1ccccc1)NC(=O)[C@H](CCCCN)NC(=O)[C@H](CCCCN)NC(=O)[C@H](Cc1ccccc1)NC(=O)[C@H](CCCCN)NC(=O)[C@H](CCCCN)NC(=O)[C@H](Cc1ccccc1)NC(=O)[C@H](CCCCN)NC(=O)[C@H](CCCCN)NC(=O)[C@H](Cc1ccccc1)NC(=O)[C@H](CCCCN)NC(=O)[C@H](CCCCN)NC(=O)[C@H](Cc1ccccc1)NC(=O)[C@@H](N)CCCCN)C(=O)O` [KFKKFKKFKKFKKFKKFKKFK], the MIC in [1] is 17.5 µM (≈ 49.8 µg/mL); in [2], no less than 176 µM; in [3] it was no less than 44 µM; in [4], 124 µM (≈ 354 µg/mL); in assay [5], 15.4 µM (≈ 43.8 µg/mL).
Regarding `CC[C@H](C)[C@H](NC(=O)[C@H](CCCCN)NC(=O)[C@H](C)NC(=O)[C@H](C)N)C(=O)N[C@H](C(=O)N[C@@H](CC(C)C)C(=O)N[C@@H](CC(N)=O)C(=O)N1CCC[C@H]1C(=O)N[C@@H](CCCCN)C(=O)N[C@@H](Cc1ccccc1)C(=O)N[C@@H](CCCN=C(N)N)C(N)=O)[C@@H](C)CC` [AAKIILNPKFR], the MIC is greater than 128 µM in assay [6]; no less than 128 µM in [7]; greater than 128 µM in assay [8]; greater than 128 µM in [9]; no less than 128 µM with Escherichia coli UB1005; no less than 128 µM in the assay with Escherichia coli K99. Besides, the MIC in assay [10] is greater than 128 µM; against Escherichia coli K88 it was no less than 128 µM; in assay [11], greater than 128 µM; in assay [12], greater than 128 µM; in [13], no less than 128 µM; in assay [14], greater than 128 µM. In addition, the MIC (in assay [15]; in [16]; in the assay on Escherichia coli 078) was no less than 128 µM in each case.
In the case of `CC[C@H](C)[C@H](N)C(=O)N[C@@H](CCC(N)=O)C(=O)N[C@@H](CCCCN)C(=O)N[C@H](C(=O)N[C@H](C(=O)N[C@@H](CCC(N)=O)C(=O)N[C@@H](CCCCN)C(=O)N[C@@H](CC(C)C)C(=O)N[C@@H](CC(C)C)C(=O)N[C@@H](CC(N)=O)C(=O)N[C@@H](CCCN=C(N)N)C(=O)N[C@@H](CC(C)C)C(=O)N[C@@H](CCC(N)=O)C(=O)N[C@@H](CCCCN)C(=O)N[C@H](C(=O)N[C@@H](CC(C)C)C(=O)N[C@@H](CCC(N)=O)C(=O)N[C@@H](CCCCN)C(=O)O)[C@@H](C)CC)[C@@H](C)CC)C(C)C` [IQKVIQKLLNRLQKILQK], the minimal inhibitory concentration (MIC) is 3.1 µM (≈ 6.83 µg/mL) in [6]; 1.05 µM (≈ 2.32 µg/mL) in assay [17]; 20.8 µM (≈ 45.9 µg/mL) in assay [18]; 4.2 µM (≈ 9.26 µg/mL) in assay [19]; 12.5 µM (≈ 27.6 µg/mL) in [20]; greater than 50 µM in assay [21]. This compound also came in with an MIC in assay [22] of 3.1 µM (≈ 6.83 µg/mL).
As for `CC[C@H](C)[C@H](N)C(=O)N[C@H](C(=O)N[C@@H](CCCCN)C(=O)N[C@H](C(=O)N[C@H](C(=O)N[C@H](C(=O)N[C@@H](CCCCN)C(=O)N[C@@H](CC(C)C)C(=O)N[C@@H](CC(C)C)C(=O)N[C@@H](CC(N)=O)C(=O)N[C@@H](CCCN=C(N)N)C(=O)N[C@@H](CC(C)C)C(=O)N[C@H](C(=O)N[C@@H](CCCCN)C(=O)N[C@H](C(=O)N[C@@H](CC(C)C)C(=O)N[C@@H](CO)C(=O)N[C@@H](CCCCN)C(=O)O)[C@@H](C)CC)[C@@H](C)O)[C@@H](C)O)[C@@H](C)CC)C(C)C)[C@@H](C)O` [ITKVITKLLNRLTKILSK], the minimal inhibitory concentration (MIC) in assay [6] was 25 µM (≈ 52.1 µg/mL); in assay [17], 1.5 µM (≈ 3.12 µg/mL); in [18], no less than 40 µM; in [19], 15 µM (≈ 31.2 µg/mL); in assay [20], no less than 50 µM; in [21], 15 µM (≈ 31.2 µg/mL). This compound displayed an MIC in [22] of 3.1 µM (≈ 6.46 µg/mL).
On to `CC[C@H](C)[C@H](NC(=O)[C@H](CCCN=C(N)N)NC(=O)[C@H](CCCN=C(N)N)NC(=O)[C@@H]1CCCN1C(=O)[C@@H]1CCCN1C(=O)[C@H](CCCN=C(N)N)NC(=O)[C@@H]1CCCN1C(=O)[C@H](CCCN=C(N)N)NC(=O)[C@@H]1CCCN1C(=O)[C@H](CCCN=C(N)N)NC(=O)[C@H](Cc1ccc(O)cc1)NC(=O)[C@@H]1CCCN1C(=O)[C@H](CCCN=C(N)N)NC(=O)[C@H](CCCCN)NC(=O)[C@H](CC(=O)O)NC(=O)[C@@H](N)C(C)C)C(=O)N[C@@H](Cc1ccc(O)cc1)C(=O)N[C@@H](CC(N)=O)C(=O)N[C@@H](CCCN=C(N)N)C(N)=O` [VDKRPYRPRPRPPRRIYNR], for which the minimal inhibitory concentration (MIC) in assay [23] came to 0.156 µM (≈ 0.39 µg/mL); against Escherichia coli JJ2487 it was 0.169 µM (≈ 0.42 µg/mL); against Escherichia coli O157:H7, 0.666 µM (≈ 1.66 µg/mL); against Escherichia coli JW0013, 0.156 µM (≈ 0.39 µg/mL); with Escherichia coli J2210, 0.12 µM (≈ 0.3 µg/mL); in the assay with Escherichia coli MC1061, 0.0602 µM (≈ 0.15 µg/mL). This compound also showed an MIC in assay [24] of 0.169 µM (≈ 0.42 µg/mL).
For `CC[C@H](C)[C@H](NC(=O)[C@H](CCCN=C(N)N)NC(=O)[C@H](CCCN=C(N)N)NC(=O)[C@@H]1CCCN1C(=O)[C@@H]1CCCN1C(=O)[C@H](CCCN=C(N)N)NC(=O)[C@@H]1CCCN1C(=O)[C@H](CCCN=C(N)N)NC(=O)[C@@H]1CCCN1C(=O)[C@H](CC(C)C)NC(=O)[C@H](Cc1ccc(O)cc1)NC(=O)[C@@H]1CCCN1C(=O)[C@H](CCCN=C(N)N)NC(=O)[C@H](CCCCN)NC(=O)[C@H](CC(=O)O)NC(=O)[C@@H](N)C(C)C)C(=O)N[C@@H](Cc1ccc(O)cc1)C(=O)N[C@@H](CC(N)=O)C(=O)N[C@@H](CCCN=C(N)N)C(N)=O` [VDKRPYLPRPRPPRRIYNR], the MIC in assay [23] stood at 0.245 µM (≈ 0.6 µg/mL); with Escherichia coli JJ2487, 0.159 µM (≈ 0.39 µg/mL); against Escherichia coli O157:H7, 0.98 µM (≈ 2.4 µg/mL); against Escherichia coli JW0013, 0.339 µM (≈ 0.83 µg/mL); in the assay on Escherichia coli J2210, 0.245 µM (≈ 0.6 µg/mL); in the assay on Escherichia coli MC1061, 0.122 µM (≈ 0.3 µg/mL). This compound showed an MIC in [24] of 0.245 µM (≈ 0.6 µg/mL).
